Holding throughout (format): cell-based
Assay [1] has as its system Phospho-Rb Ser807/811 in OVCAR3 cells. Nature of the assay: OVCAR3 Phospho-Rb Ser807/811 HTRF assay. To be noted: Homo sapiens, read-out: pRb-OVCAR3 IC50. How it is done:
Cells were trypsinized and resuspended in 1 mM hydroxyurea (Sigma; H8627), 90% RPMI and 10% fetal bovine serum. […] Dose response curve normalized to DMSO control was plotted using four-parameter logistic model for IC50 calculation.
For orientation: Time-resolved FRET reads energy transfer from a long-lived donor to a nearby acceptor.

For assay [2], the target named is T1, CDK2-NanoLuc fusion with CCNE1 in 293T or 293 cells (Homo sapiens, UniProt P24941).
T1 construct: host or cells: 293T (ATCC CRL-3216) or 293 (ATCC CRL-1573)
Nature of the assay: NanoBRET Target Engagement (TE) Intracellular Kinase Assay, CDK2/CCNE1. The settings on record: NanoBRET TE intracellular kinase assay, 2-hour incubation, read-out: NanoBRET-CDK2/E1 IC50. (BRET reads energy transfer from a luciferase to a nearby fluorophore.)

The target in assay [3] is T2, CDK1-NanoLuc fusion with CCNB1 in 293T or 293 cells (Homo sapiens, UniProt P06493).
T2 construct: host or cells: 293T (ATCC CRL-3216) or 293 (ATCC CRL-1573)
Nature of the assay: NanoBRET Target Engagement (TE) Intracellular Kinase Assay, CDK1/CCNB1. To be noted: NanoBRET TE intracellular kinase assay, 2-hour incubation, read-out: NanoBRET-CDK1/B1 IC50. How it is done:
Inhibitory effects of compounds were measured in NanoBRET TE Intracellular Kinase Assay. 293T (ATCC; CRL-3216) or 293 (ATCC; CRL-1573) cell lines were maintained in 90% DMEM and 10% fetal bovine serum at 37° C., 5% CO2, and 95% relative humidity. Cells were trypsinized and resuspended in assay media (99% Opti-MEM I Reduced Serum Medium, no phenol red, and 1% fetal bovine serum). Cells were co-transfected with 1 μg/mL of CDK-NanoLuc Fusion Vector (Promega; NV2701 for CDK1, NV2781 for CDK2, NV2811 for CDK4, NV2841 for CDK6) and 1 μg/mL of the corresponding Cyclin Expression Vector (Promega; NV2601 for CCNB1, NV2641 for CCNE1, NV2621 for CCND1, NV2631 for CCND3) using FuGENE HD Transfection Reagent (Promega; E2311). 40 uL/well of cells with transfection mixture were seeded in 384-well plates at 1.25×10^5 to 2×10^5 cells/mL and incubated for 24 hours at 37° C., 5% CO2, and 95% relative humidity. On the next day, 100 nL of 100 μM NanoBRET Tracer K-10 (Promega; N2640) and 40 nL of 1000× test compounds prepared in DMSO were added to the cells in each well of 384-well plates for a 2-hour incubation at 37° C., 5% CO2, and 95% relative humidity. 20 uL/well of 3× Intracellular TE Nano-Glo Substrate/Inhibitor (Promega; N2162) were added to 384-well plates and incubated for 3 minutes at room temperature. NanoBRET signals (donor emission wavelength at 450 nm, acceptor emission wavelength at 610 nm) were measured using Envision plate reader (PerkinElmer). NanoBRET ratio was calculated by: BRET Ratio=raw signal for acceptor/raw signal for donor. Dose response curve normalized to DMSO control was plotted using four-parameter logistic model for IC50 calculation.

Assay [4] addresses T3, CDK4-NanoLuc fusion with CCND1 in 293T or 293 cells (Homo sapiens, UniProt P11802).
T3 construct: host or cells: 293T (ATCC CRL-3216) or 293 (ATCC CRL-1573)
Nature of the assay: NanoBRET Target Engagement (TE) Intracellular Kinase Assay, CDK4/CCND1. The settings on record: NanoBRET TE intracellular kinase assay, 2-hour incubation, read-out: NanoBRET-CDK4/D1 IC50.

The mark [5] stands for this setting: OVCAR-3, 1 h, OVCAR3 cells, Phospho-Rb Ser807/811 HTRF, 1 hour incubation.

Where two headings read alike, the source gives them in different places.

T3 sequence (P11802 whole entry, the tested form may be a part): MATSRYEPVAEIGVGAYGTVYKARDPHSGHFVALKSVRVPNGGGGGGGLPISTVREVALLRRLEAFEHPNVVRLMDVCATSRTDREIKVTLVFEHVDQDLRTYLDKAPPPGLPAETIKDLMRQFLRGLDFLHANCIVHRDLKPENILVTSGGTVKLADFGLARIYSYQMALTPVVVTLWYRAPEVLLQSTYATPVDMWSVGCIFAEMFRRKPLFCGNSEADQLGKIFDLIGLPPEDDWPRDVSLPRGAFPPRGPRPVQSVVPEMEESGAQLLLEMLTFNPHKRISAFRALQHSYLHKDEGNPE
T3 sequence (P24385 whole entry partner, the tested form may be a part): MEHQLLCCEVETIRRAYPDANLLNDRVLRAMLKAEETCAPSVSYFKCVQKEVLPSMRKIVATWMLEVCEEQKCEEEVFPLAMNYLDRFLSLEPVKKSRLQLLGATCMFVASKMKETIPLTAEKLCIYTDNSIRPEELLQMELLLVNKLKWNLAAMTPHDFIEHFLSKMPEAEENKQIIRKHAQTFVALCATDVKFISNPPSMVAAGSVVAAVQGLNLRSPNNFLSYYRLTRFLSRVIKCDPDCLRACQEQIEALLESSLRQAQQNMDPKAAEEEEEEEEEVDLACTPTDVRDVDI
T2 sequence (P06493 whole entry, the tested form may be a part): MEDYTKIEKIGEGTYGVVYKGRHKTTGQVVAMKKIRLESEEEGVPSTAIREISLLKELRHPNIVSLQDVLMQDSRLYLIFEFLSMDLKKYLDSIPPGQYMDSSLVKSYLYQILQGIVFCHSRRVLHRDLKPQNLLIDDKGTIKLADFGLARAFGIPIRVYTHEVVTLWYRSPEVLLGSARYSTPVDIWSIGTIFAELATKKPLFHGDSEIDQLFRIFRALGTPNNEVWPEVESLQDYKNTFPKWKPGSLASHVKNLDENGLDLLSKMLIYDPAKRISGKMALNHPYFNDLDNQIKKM
T2 sequence (P14635 whole entry partner, the tested form may be a part): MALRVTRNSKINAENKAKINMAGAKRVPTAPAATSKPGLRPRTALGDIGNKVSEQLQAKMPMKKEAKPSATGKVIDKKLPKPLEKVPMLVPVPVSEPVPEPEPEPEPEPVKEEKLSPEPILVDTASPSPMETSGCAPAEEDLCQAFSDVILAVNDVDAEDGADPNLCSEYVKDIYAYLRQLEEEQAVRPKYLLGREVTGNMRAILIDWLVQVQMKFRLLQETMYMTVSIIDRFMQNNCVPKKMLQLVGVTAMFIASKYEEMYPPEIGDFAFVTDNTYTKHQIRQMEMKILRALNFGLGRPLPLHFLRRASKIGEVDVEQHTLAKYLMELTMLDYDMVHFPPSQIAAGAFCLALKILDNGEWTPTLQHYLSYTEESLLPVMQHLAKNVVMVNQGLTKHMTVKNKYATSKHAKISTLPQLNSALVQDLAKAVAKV

As for `CC(C)NC(=O)O[C@@H]1CC[C@H](c2cc(NC(=O)CCc3cccc(O)c3C=O)n[nH]2)C1` [Compound 7, (1R,3S)-3-(3-(3-(2-formyl-3-hydroxyphenyl)propanamido)-1H-pyrazol-5-yl)cyclopentyl isopropylcarbamate trifuoroacetic acid], the IC50 in assay [1] (OVCAR-3, 1 h) was determined as 1500 nM; in assay [2], 11.4 nM; in assay [3], 275 nM; in assay [4] it was 1850 nM.

Regarding `CC(C)NC(=O)O[C@@H]1CC[C@H](c2cc(NC(=O)c3cnn(-c4cccc(O)c4C=O)c3)n[nH]2)C1` [Compound 8, (1R,3S)-3-{5-[1-(2-formyl-3-hydroxyphenyl)pyrazole-4-amido]-2H-pyrazol-3-yl}cyclopentyl N-isopropylcarbamate; trifluoroacetic acid], the IC50 in assay [1] (OVCAR-3, OVCAR3 cells, Phospho-Rb Ser807/811 HTRF, 1 hour incubation) was 880 nM; in assay [2], 24.9 nM; in assay [3] it was 73.5 nM; in assay [4], 5460 nM.

For the molecule `Cc1cc(C(=O)Nc2cc([C@H]3CC[C@@H](OC(=O)NC(C)C)C3)[nH]n2)cc(C=O)c1O` [Compound 15, (1R,3S)-3-(3-(3-formyl-4-hydroxy-5-methylbenzamido)-1H-pyrazol-5-yl)cyclopentyl isopropylcarbamate trifluoroacetic acid], the IC50 in assay [1] (setting [5]) came to 112 nM; in assay [2], 2.65 nM; in assay [3], 25.3 nM; in assay [4], 1820 nM.

Regarding `CC(C)NC(=O)O[C@@H]1CC[C@H](c2cc(NC(=O)c3cc(Oc4cccc(O)c4C=O)nn3C)n[nH]2)C1` [Compound 19, (1R,3S)-3-{5-[5-(2-formyl-3-hydroxyphenoxy)-2-methylpyrazole-3-amido]-2H-pyrazol-3-yl}cyclopentyl N-isopropylcarbamate], the IC50 in assay [1] (setting [5]) stood at 941 nM; in assay [2] it was 16.4 nM; in assay [3], 78 nM; in assay [4], 2420 nM.

As to `CC(C)NC(=O)O[C@@H]1CC[C@H](c2cc(NC(=O)c3cc(C(=O)Nc4cccc(O)c4C=O)nn3C)n[nH]2)C1` [Compound 20, (1R,3S)-3-(5-{5-[(2-formyl-3-hydroxyphenyl)carbamoyl]-2-methylpyrazole-3-amido}-2H-pyrazol-3-yl)cyclopentyl N-isopropylcarbamate; trifluoroacetic acid], the IC50 in assay [1] (setting [5]) was 915 nM; in assay [2], 10.5 nM; in assay [3], 147 nM; in assay [4] it was 1210 nM.

`CC(C)NC(=O)O[C@@H]1CC[C@H](c2cc(NC(=O)c3cc(C(=O)Nc4ccccc4C=O)nn3C)n[nH]2)C1` [Compound 21, (1R,3S)-3-(5-{5-[(2-formylphenyl)carbamoyl]-2-methylpyrazole-3-amido}-2H-pyrazol-3-yl)cyclopentyl N-isopropylcarbamate; trifluoroacetic acid]: the IC50 in assay [1] (setting [5]) came out at 2120 nM; in assay [2], 5.53 nM; in assay [3], 290 nM; in assay [4] it was 3900 nM.

`CC(C)NC(=O)O[C@@H]1CC[C@H](c2cc(Nc3cc(COc4cccc(O)c4C=O)ccn3)n[nH]2)C1` [Compound 24, (1R,3S)-3-(3-((4-((2-formyl-3-hydroxyphenoxy)methyl)pyridin-2-yl)amino)-1H-pyrazol-5-yl)cyclopentyl isopropylcarbamate]: the IC50 in assay [1] (setting [5]) was found to be 3760 nM; in assay [2] it was 18.7 nM; in assay [3], 516 nM; in assay [4], 4880 nM.

`CC(C)NC(=O)O[C@@H]1CC[C@H](c2cc(Nc3cc(OCc4cccc(O)c4C=O)ccn3)n[nH]2)C1` [Compound 25, (1R,3S)-3-[5-({4-[(2-formyl-3-hydroxyphenyl)methoxy]pyridine-2-yl}amino)-2H-pyrazol-3-yl]cyclopentyl N-isopropylcarbamate]: the IC50 is 1330 nM in assay [1] (setting [5]), 9.94 nM in assay [2], 299 nM in assay [3] and 1210 nM in assay [4].

`CC(C)NC(=O)O[C@@H]1CC[C@H](c2cc(NC(=O)c3cc(COc4cccc(O)c4C=O)nn3C)n[nH]2)C1` [Compound 27, (1R,3S)-3-{5-[5-(2-formyl-3-hydroxyphenoxymethyl)-2-methylpyrazole-3-amido]-2H-pyrazol-3-yl}cyclopentyl N-isopropylcarbamate]: the IC50 in assay [1] (setting [5]) was 95.2 nM; in assay [2], 5.24 nM; in assay [3], 17.7 nM; in assay [4] it was 112 nM.

Regarding `CC(C)NC(=O)O[C@@H]1CC[C@H](c2cc(NC(=O)c3cc(OCc4cccc(O)c4C=O)nn3C)n[nH]2)C1` [Compound 28, (1R,3S)-3-(3-(3-((2-formyl-3-hydroxybenzyl)oxy)-1-methyl-1H-pyrazole-5-carboxamido)-1H-pyrazol-5-yl)cyclopentyl isopropylcarbamate], the IC50 is 1820 nM in assay [1] (setting [5]), 10.4 nM in assay [2], 151 nM in assay [3] and 1190 nM in assay [4].

`CC(C)NC(=O)O[C@@H]1CC[C@H](c2cc(NC(=O)c3cc(C#Cc4cccc(O)c4C=O)nn3C)n[nH]2)C1` [Compound 29, (1R,3S)-3-(5-{5-[2-(2-formyl-3-hydroxyphenyl)ethynyl]-2-methylpyrazole-3-amido}-2H-pyrazol-3-yl)cyclopentyl N-isopropylcarbamate]: the IC50 was found to be 2150 nM in assay [1] (setting [5]), 18.6 nM in assay [2], 494 nM in assay [3] and 1550 nM in assay [4].

With `CC(C)NC(=O)O[C@@H]1CC[C@H](c2cc(NC(=O)c3cc(CCc4cccc(O)c4C=O)nn3C)n[nH]2)C1` [Compound 30, (1R,3S)-3-(5-{5-[2-(2-formyl-3-hydroxyphenyl)ethyl]-2-methylpyrazole-3-amido}-2H-pyrazol-3-yl)cyclopentyl N-isopropylcarbamate], the IC50 in assay [1] (setting [5]) came out at 2740 nM; in assay [2], 17.8 nM; in assay [3], 491 nM; in assay [4], 3160 nM.

With `CC(C)NC(=O)O[C@@H]1CC[C@H](c2cc(NC(=O)c3cc(-c4ccc(O)c(C=O)c4)nn3C)n[nH]2)C1` [Compound 31, (1R,3S)-3-{5-[5-(3-formyl-4-hydroxyphenyl)-2-methylpyrazole-3-amido]-2H-pyrazol-3-yl}cyclopentyl N-isopropylcarbamate], the IC50 in assay [1] (setting [5]) came out at 214 nM; in assay [2], 5.46 nM; in assay [3] it was 20.4 nM; in assay [4], 3070 nM.

As for `CC(C)NC(=O)O[C@@H]1CC[C@H](c2cc(NC(=O)CCOc3cccc(O)c3C=O)n[nH]2)C1` [Compound 34, (1R,3S)-3-{5-[3-(2-formyl-3-hydroxyphenoxy)propanamido]-2H-pyrazol-3-yl}cyclopentyl N-isopropylcarbamate; trifluoroacetic acid], the IC50 in assay [1] (setting [5]) worked out at 552 nM; in assay [2], 5.34 nM; in assay [3], 98.9 nM; in assay [4] it was 196 nM.

As for `CC(C)NC(=O)O[C@@H]1CC[C@H](c2cc(NC(=O)OCCc3cccc(O)c3C=O)n[nH]2)C1` [Compound 35, 2-(2-formyl-3-hydroxyphenyl)ethyl N-{5-[(1S,3R)-3-[(isopropylcarbamoyl)oxy]cyclopentyl]-1H-pyrazol-3-yl}carbamate; trifluoroacetic acid], the IC50 amounted to 4130 nM in assay [1] (setting [5]), 23.9 nM in assay [2], 537 nM in assay [3] and 3960 nM in assay [4].

For the molecule `CC(C)NC(=O)O[C@@H]1CC[C@H](c2cc(NC(=O)COCc3cccc(O)c3C=O)n[nH]2)C1` [Compound 36, (1R,3S)-3-(5-{2-[(2-formyl-3-hydroxyphenyl)methoxy]acetamido}-2H-pyrazol-3-yl)cyclopentyl N-isopropylcarbamate; trifluoroacetic acid], the IC50 came out at 702 nM in assay [1] (setting [5]), 8.17 nM in assay [2], 82.2 nM in assay [3] and 1910 nM in assay [4].

Values taken from US20250289789A1, “REVERSIBLE LYSINE COVALENT MODIFIERS OF CDK2 AND USES THEREOF” (Terremoto Biosciences, Inc., priority 2023, published 2025).
